According to article PMC6349905 (Cell Death Discovery, 2019):
Like-named read-outs stand apart in the source and are kept apart here.

Columns and labels:
[1] = tested on: control, TMEM97 KO, PGRMC1 KO and double KO HeLa cells; assay: Cell viability assay across control and knockout HeLa cell lines (results in words); details: for cytotoxicity in control and knockout cells: TMEM97 KO, PGRMC1 KO and double KO HeLa cells; for block of sigma-2 ligand-induced cytotoxicity: 30 µM, 1 h pre-incubation, then with sigma-2 agonists 24 h, all four cell lines
Method: In order to study whether sigma-2 ligand-induced cytotoxicity is mediated by sigma-1 receptors, we used a sigma-1 agonist, (+)-pentazocine, or sigma-1 antagonist, NE-100, to block the sigma-1 binding site and then examined sigma-2 ligand-induced cytotoxicity. […] We pre-incubated cells with vehicle (cell culture media), 30 µM (+)-pentazocine, or 30 µM NE-100 for 1 h, then treated cells with sigma-2 agonists in the absence or presence of (+)-pentazocine or NE-100 for 24 h.
The cytotoxicity of compounds was determined using the CellTiter Glo® chemiluminescent assay (Promega, Madison, WI) that measures ATP. Cells were plated in black wall clear bottom 96-well plates at 5000 cells per well 24 h before treatment. Each compound was dissolved in DMSO and serially diluted in culture medium to acquire the desired concentrations. The final concentration of DMSO in the cell culture medium was no more than 1.0%. After 24 h treatment with the various compounds, 25 μl of the CellTiter Glo® Solution Reagent was added to each well. Then plates were immediately read on a Perkin Elmer Enspire® Multimode Plate Reader. Luminescence detected for each well was normalized to the untreated control and data was calculated as percent viability. The EC50, defined as the concentration of the sigma ligand required to inhibit cell proliferation by 50% relative to untreated cells, was determined from the dose–response curves generated using GraphPad Prism version 6 (GraphPad Software, Inc. La Jolla, CA).

[2] = tested on: TMEM97/PGRMC1 double KO HeLa cells; assay: Cell viability assay (CellTiter Glo), double KO cells; assay type: cell-based, human; details: 24 h, mean ± SD
Method: (§1) HeLa human cervical cancer cells were from American Type Culture Collection (ATCC, Manassas, VA). Control, TMEM97 KO, PGRMC1 KO and TMEM97/PGRMC1 double KO HeLa cell lines were grown in MEM containing 10% fetal bovine serum, 2 mM L-glutamine, 1% non-essential amino acids, 100 units/ml penicillin, and 100 μg/ml streptomycin. All the cell lines were maintained at 37 °C in a humidified incubator with a 5% CO2/95% air atmosphere.

sigma-1 receptors = molecular target: T1, sigma-1 receptors (Cavia porcellus, UniProt Q60492); assay: Sigma-1 receptor competition binding assay with [3H](+)-pentazocine; set-up: species or system guinea pig
T1 construct: 100 μg guinea pig brain membrane homogenates; from tissue; host or cells: guinea pig brain membrane homogenates
T1 sequence (Q60492 whole entry): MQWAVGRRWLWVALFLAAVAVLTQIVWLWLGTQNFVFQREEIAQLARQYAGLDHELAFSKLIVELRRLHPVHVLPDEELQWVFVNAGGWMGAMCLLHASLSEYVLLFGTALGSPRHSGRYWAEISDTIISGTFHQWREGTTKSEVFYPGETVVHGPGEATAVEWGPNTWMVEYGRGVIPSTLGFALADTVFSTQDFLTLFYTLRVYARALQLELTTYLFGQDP
Method: (§2) The sigma-1 and sigma-2 receptor binding affinities of sigma-2 ligands were determined using a competition assay as previously described[32],[33]. […] The concentrations of each non-radioactive compound ranged from 0.1 to 10 μM. The non-specific binding was determined in the presence of 10 μM haloperidol. […] The concentrations of each non-radioactive compound ranged from 0.1 nM to 10 μM. 500 nM of (+)-pentazocine was added to mask the sigma-1 receptor binding site. The non-specific binding was determined in the presence 10 μM DTG.
(§3) After incubation, the bound ligands were filtrated with a M-24 Brandel filtration system (Brandel, Gaithersburg, MD, USA), collected on glass fiber papers (Whatman grade 934-AH, GE Healthcare Bio-Sciences, Pittsburgh, PA), and counted with a MicroBeta2 Microplate counter 2450 (Perkin Elmer, Boston, MA). […] Ki values were reported as mean ± SD from at least three independent experiments.

PGRMC1 KO HeLa cells = assay: Cell viability assay (CellTiter Glo), PGRMC1 KO cells; assay type: cell-based, human; details: 24 h, mean ± SD
Method: as §1

TMEM97 KO HeLa cells = assay: Cell viability assay (CellTiter Glo), TMEM97 KO cells; assay type: cell-based, human; details: 24 h, mean ± SD
Method: as §1

control HeLa cells = assay: Cell viability assay (CellTiter Glo), control cells; assay type: cell-based, human; details: 24 h, mean ± SD
Method: as §1

sigma-2 receptors [3] = molecular target: T2, sigma-2 receptors (Rattus norvegicus, UniProt Q5U3Y7); assay: Sigma-2 receptor competition binding assay with [3H]DTG; set-up: 60 μg Sprague Dawley rat liver membrane homogenates; from tissue; host or cells: Sprague Dawley rat liver membrane homogenates
T2 sequence (Q5U3Y7 1-176): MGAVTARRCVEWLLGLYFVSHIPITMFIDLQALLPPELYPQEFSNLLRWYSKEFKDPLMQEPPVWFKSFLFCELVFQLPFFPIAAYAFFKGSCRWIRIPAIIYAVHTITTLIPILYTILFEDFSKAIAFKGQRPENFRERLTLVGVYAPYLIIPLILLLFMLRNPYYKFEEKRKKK
Method: as §2, §3

[4] = tested on: control, TMEM97 KO, PGRMC1 KO and double KO HeLa cells; assay: Internalization of SW120 (confocal imaging); assay type: cell-based, human; details: 100 nM, room temperature
Method: HeLa cells were plated on 35-mm-diameter glass-bottom dishes at 2 × 10^5 cells per dish and incubated for 24 h. Prior to imaging, media was removed and fresh media containing 100 nM SW120 was added to the dishes. SW120 uptake in the live cells at room temperature was imaged using an inverted confocal microscope (Leica STED 3× super-resolution microscope). Images were acquired at 25 s intervals using a ×10 objective lens (using an excitation wavelength of 488 nm, and a 505 to 540 nm bandpass filter). Five optical slices at 2-μm intervals were scanned using the Z-stack function of the Leica imaging software. The brightest optical slice out of the five Z-stack optical slices was chosen for fluorescent intensity analysis. Twenty cells were analyzed in each dish using Fiji, an open-source platform based on ImageJ[35]. The fluorescent intensity was calculated as an average of 60 cells from three independent experiments (mean ± SEM).

[5] = tested on: DTG residual binding site (RBS); assay: DTG RBS competition binding assay, TMEM97 KO cell membranes; set-up: species or system human; details: TMEM97 KO HeLa cell membranes, 45 nM [3H]DTG, 500 nM (+)-pentazocine mask
Method: (§4) The binding affinities of sigma-2 ligands for the DTG RBS were determined using a competition assay as previously described[13],[33] with minor modification. For cell harvesting, TMEM97 KO or TMEM97/PGRMC1 double KO HeLa cells were scraped from culture dishes in ice-cold Phosphate-Buffered Saline (PBS) and collected by centrifugation. The cell pellets were immediately stored at −80 °C until use. For cell membrane homogenate preparation, the cell pellets were re-suspended in 10 mL ice-cold PBS, and homogenized using Wheaton overhead stirrer (120 Vac Overhead Stirrer, Millville, NJ, USA) at the speed of 2 for 30 sec. The cell homogenates were then centrifuged for 20 min at 31,000×g at 4 °C. After centrifugation, the supernatant was discarded and the pellets were re-suspended in 1 mL ice-cold PBS and stored at −80 °C freezer until use. […] 500 nM (+)-pentazocine was added to mask the sigma-1 receptor binding site. The non-specific binding was determined in the presence of 60 μM cold DTG.
as §3

[6] = tested on: DTG residual binding site (RBS); assay: DTG RBS competition binding assay, double KO cell membranes; set-up: species or system human; details: double KO HeLa cell membranes, 45 nM [3H]DTG, 500 nM (+)-pentazocine mask
Method: as §4, §3

sigma-2 receptors [7] = molecular target: T2, sigma-2 receptors; details: rat liver membranes, 500 nM (+)-pentazocine mask
Method: binding, the nonspecific binding was determined inthe presence of
was added to mask the sigma-1 receptor binding site and the
nonspecific binding was determined in the presence 10 μM DTG.
The Kd and Bmax values were determined by a nonlinear regression
analysis using GraphPad Prism software.
The Kd and Bmax values were
reported as mean ± SD in at least three independent experiments

[8] = molecular target: DTG residual binding site (RBS); set-up: method as in PMID 30443021; details: TMEM97 KO HeLa cell membranes; read-out: Kd for the [3H]DTG RBS, TMEM97 KO cell membranes; cited from earlier work
[9] = molecular target: DTG residual binding site (RBS); set-up: method as in PMID 30443021; details: double KO HeLa cell membranes; read-out: Kd for the [3H]DTG RBS, double KO cell membranes; cited from earlier work
[10] = tested on: caspase-3 activation in control and knockout HeLa cells; assay: Caspase-Glo 3/7 assay; assay type: cell-based, human; details: 24 h, TMEM97 KO and PGRMC1 KO cell lines
Method: HeLa cells were plated in white opaque 96-well plate at a cell density of 5000 cells per well for 24 h. […] Caspase-3/7 activity was measured by using the Caspase-Glo 3/7 Assay (Promega).

[11] = guinea pig brain membranes, 5 nM [3H](+)-pentazocine, mean ± SD, read-out: Ki for sigma-1 receptors
[12] = rat liver membranes, 5 nM [3H]DTG, 500 nM (+)-pentazocine mask, mean ± SD, read-out: Ki for sigma-2 receptors

Row | SMILES | cytotoxicity in control and knockout cells [1] | EC50 ([2]; Homo sapiens) | Ki (sigma-1 receptors; [11]) | EC50 (PGRMC1 KO HeLa cells; Homo sapiens) | EC50 (TMEM97 KO HeLa cells; Homo sapiens) | EC50 (control HeLa cells; Homo sapiens) | Ki (sigma-2 receptors [3]; [12]) | Ki [5] | Ki [6] | also measured
1 | COc1cc2c(cc1OC)CN(CCCCNC(=O)c1cc(C)ccc1OCCF)CC2 [ISO-1] | did not exhibit | > 200 µM | 0.0239 ± 0.0019 µM | > 200 µM | > 200 µM | > 200 µM | 0.002 ± 0.0006 µM |  |  | 
2 | COc1ccc(C)cc1NC(=O)OC1CC2CCCC(C1)N2CCCCCCCCCCNc1ccc([N+](=O)[O-])c2nonc12 (stereo not drawn) [SW120] |  |  | 1.94 ± 0.262 µM |  |  |  |  |  |  | uptake signals at 60, 90 and 120 min, all cell lines [4]: essentially the same for all the cell lines; internalization rate in knockout cells compared to control cells ([4]; 25-sec intervals for 18 min, TMEM97 KO, PGRMC1 KO and double KO cells): reduced internalization rates; Ki (sigma-2 receptors [3]): 0.001 ± 0.0003 µM
3 | COc1cc2c(cc1OC)CN(CCCCNC(=O)c1cc(C)ccc1OC)CC2 [RHM-1] | did not exhibit | > 200 µM | 1.93 ± 0.625 µM | > 200 µM | > 200 µM | > 200 µM |  |  |  | 
4 | COc1cccc2c1CCCC2CCCN1CCN(C2CCCCC2)CC1 (stereo not drawn) [PB28, 1-Cyclohexyl-4-[3-(5-methoxy-1,2,3,4-tetrahydronaphthalen-1-yl)propyl]piperazine] |  | 57.4 ± 6.9 µM |  | 59.4 ± 8 µM | 59.8 ± 10.7 µM | 58.2 ± 5.9 µM | 0.0011 ± 0.0003 µM | 0.0087 µM | 0.0052 µM | 
5 | CCCN(CCC)CCc1ccc(OC)c(OCCc2ccccc2)c1 [NE-100] | did not exhibit cytotoxicity |  |  |  |  |  |  |  |  | block of sigma-2 ligand-induced cytotoxicity [1]: neither (+)-pentazocine nor NE-100 blocked sigma-2 ligand-induced cytotoxicity; EC50 [2]: > 200 µM; EC50 (PGRMC1 KO HeLa cells): > 200 µM; EC50 (TMEM97 KO HeLa cells): > 200 µM; EC50 (control HeLa cells): > 200 µM
6 | Cc1ccccc1NC(=N)Nc1ccccc1C [[^3H]DTG, 1,3-Di-o-tolylguanidine] |  |  |  |  |  |  |  |  |  | Bmax of [3H]DTG (sigma-2 receptors [7]): 8958.0 ± 924.9 fmol/mg; Kd [8]: 0.302 µM; Kd [9]: 0.403 µM
7 | Fc1ccc(-n2cc(CCCCN3CCC4(CC3)OCc3ccccc34)c3ccccc32)cc1 [Siramesine, siramesine] |  | 10 ± 1.3 µM |  | 10.7 ± 0.7 µM | 10.3 ± 1.49 µM | 12.1 ± 1.7 µM |  | 0.115 µM | 0.0497 µM | Ki (sigma-1 receptors): 0.003 ± 0.0005 µM
8 | COc1cc2c(cc1OC)CN(CCCCNC(=O)c1cc(I)cc(OC)c1OC)CC2 [RHM-4] |  | > 200 µM | 3.61 ± 0.533 µM | > 200 µM | > 200 µM | > 200 µM | 0.0024 ± 0.0002 µM | > 100 µM | > 100 µM | 
9 | COc1ccc(C)cc1NC(=O)OC1CC2CCCC(C1)N2CCCCCCCCCCN (stereo not drawn) [SW43] |  | 32.8 ± 3.8 µM | 0.278 ± 0.065 µM | 33.2 ± 1.6 µM | 30.4 ± 3.4 µM | 33.7 ± 8.6 µM |  | 33.5 µM | 8.62 µM | EC50 of caspase-3/7 activation, comparison of cell lines [10]: identical; Ki (sigma-2 receptors [3]): 0.0129 ± 0.0023 µM
10 | CC(C)=CCN1CC[C@]2(C)c3cc(O)ccc3C[C@H]1[C@H]2C [(+)-pentazocine] | did not exhibit cytotoxicity |  |  |  |  |  |  |  |  | block of sigma-2 ligand-induced cytotoxicity [1]: neither (+)-pentazocine nor NE-100 blocked sigma-2 ligand-induced cytotoxicity; EC50 [2]: > 200 µM; EC50 (PGRMC1 KO HeLa cells): > 200 µM; EC50 (TMEM97 KO HeLa cells): > 200 µM; EC50 (control HeLa cells): > 200 µM
